Assay results reported in patent US20250368647A1, “NITROGEN CONTAINING CONDENSED 2,3-DIHYDROQUINAZOLINONE COMPOUNDS AS NAV1.8 INHIBITORS” (GLAXOSMITHKLINE INTELLECTUAL PROPERTY DEVELOPMENT LIMITED, priority 2022, published 2025).

Target: human Nav1.8 (Homo sapiens (Human), UniProt Q9Y5Y9)
Assay: QPatch 48 HTX voltage-clamp electrophysiology, half inactivation state (V1/2) protocol, HEK293-Nav1.8 cells
Type: cell-based
Conditions: HEK293 cells expressing human Nav1.8, human Navβ1 and human TREK1, P2 current
Summary of the method: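 HEK293 cells co-expressing Navβ1 and TREK1 were voltage-clamped from −100 mV: a 20 ms step to 0 mV, 8 s inactivation at −46 mV, 20 ms at −100 mV, then a 20 ms P2 test step to 0 mV, repeated every 15 s. P2 current was normalized to vehicle and full block, corrected for run-down, and Hill-fitted (4–6 concentrations) for IC50.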

Sequence of human Nav1.8 (Q9Y5Y9 whole entry): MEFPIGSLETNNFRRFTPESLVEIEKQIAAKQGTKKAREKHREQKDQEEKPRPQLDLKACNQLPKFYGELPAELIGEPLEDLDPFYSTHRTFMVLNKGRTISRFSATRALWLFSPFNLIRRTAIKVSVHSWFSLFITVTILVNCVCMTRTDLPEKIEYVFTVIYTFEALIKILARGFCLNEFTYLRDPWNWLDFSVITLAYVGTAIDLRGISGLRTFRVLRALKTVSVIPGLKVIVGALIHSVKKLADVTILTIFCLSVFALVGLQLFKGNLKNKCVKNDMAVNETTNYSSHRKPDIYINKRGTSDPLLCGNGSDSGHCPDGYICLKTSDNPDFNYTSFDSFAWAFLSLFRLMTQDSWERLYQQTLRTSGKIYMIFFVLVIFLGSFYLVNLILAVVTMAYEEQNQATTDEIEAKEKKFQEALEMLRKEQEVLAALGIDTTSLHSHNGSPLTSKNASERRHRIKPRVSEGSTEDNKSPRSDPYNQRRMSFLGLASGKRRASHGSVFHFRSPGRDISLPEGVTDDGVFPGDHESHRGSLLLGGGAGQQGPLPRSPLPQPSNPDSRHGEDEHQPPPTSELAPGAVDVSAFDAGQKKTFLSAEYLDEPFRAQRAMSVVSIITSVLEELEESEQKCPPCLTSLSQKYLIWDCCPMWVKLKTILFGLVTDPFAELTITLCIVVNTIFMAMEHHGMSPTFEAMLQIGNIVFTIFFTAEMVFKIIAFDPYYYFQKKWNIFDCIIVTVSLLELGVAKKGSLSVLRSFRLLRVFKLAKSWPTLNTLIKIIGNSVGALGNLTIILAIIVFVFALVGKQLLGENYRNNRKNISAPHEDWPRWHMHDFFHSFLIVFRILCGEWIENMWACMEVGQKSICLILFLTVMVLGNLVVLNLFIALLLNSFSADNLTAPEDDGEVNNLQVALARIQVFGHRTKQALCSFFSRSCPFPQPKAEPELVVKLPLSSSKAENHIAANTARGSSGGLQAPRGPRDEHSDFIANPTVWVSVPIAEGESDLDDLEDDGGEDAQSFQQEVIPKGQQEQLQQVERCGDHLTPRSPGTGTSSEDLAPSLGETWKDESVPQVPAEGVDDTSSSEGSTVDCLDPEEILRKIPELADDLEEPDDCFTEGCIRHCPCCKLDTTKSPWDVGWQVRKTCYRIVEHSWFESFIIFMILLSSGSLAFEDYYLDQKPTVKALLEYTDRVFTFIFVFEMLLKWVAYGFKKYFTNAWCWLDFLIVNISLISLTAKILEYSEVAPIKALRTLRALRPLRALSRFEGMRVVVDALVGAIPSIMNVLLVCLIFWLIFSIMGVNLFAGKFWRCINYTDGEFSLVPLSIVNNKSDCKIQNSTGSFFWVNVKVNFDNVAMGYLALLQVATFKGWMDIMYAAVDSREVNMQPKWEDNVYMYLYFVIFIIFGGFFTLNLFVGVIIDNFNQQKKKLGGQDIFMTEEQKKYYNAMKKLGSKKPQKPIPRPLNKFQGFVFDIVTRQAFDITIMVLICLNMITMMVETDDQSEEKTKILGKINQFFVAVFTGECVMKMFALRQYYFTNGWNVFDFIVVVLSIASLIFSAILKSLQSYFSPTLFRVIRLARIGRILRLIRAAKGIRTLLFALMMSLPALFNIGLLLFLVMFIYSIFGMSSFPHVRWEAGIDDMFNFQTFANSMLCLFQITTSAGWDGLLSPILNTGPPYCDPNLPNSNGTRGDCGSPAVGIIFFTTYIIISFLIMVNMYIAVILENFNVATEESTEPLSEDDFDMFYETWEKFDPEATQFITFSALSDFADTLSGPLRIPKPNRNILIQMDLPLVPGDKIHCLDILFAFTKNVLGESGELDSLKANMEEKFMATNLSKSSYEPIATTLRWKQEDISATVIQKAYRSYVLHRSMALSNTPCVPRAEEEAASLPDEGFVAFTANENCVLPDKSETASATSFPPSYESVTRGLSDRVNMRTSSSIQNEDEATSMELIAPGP
Sequence of human Nav1.8 (Q07699 19-218 partner): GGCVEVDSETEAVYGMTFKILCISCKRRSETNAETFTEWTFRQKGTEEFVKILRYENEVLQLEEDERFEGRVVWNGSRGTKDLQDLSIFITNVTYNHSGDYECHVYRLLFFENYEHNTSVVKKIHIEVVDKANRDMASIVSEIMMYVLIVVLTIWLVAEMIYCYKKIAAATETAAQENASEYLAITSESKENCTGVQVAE

Row | Structure (SMILES) | Nav1.8, pIC50
1 | Cl.O=C1c2cc(F)c(Br)cc2N2CN1c1ccc(=O)[nH]c1CCNCc1cc(F)ccc12 [Example 63, 3-Bromo-2,8-difluoro-10,11,12,13-tetrahydro-19H-5,18-methanodibenzo[c,f]pyrido[3,2-j][1,5,9]triazacyclotridecine-15,19(14H)-dione hydrochloride] | 8
2 | Cl.O=C1c2cc(F)c(F)cc2N2CN1c1ccc(=O)[nH]c1CCNCc1c2ccc(F)c1Cl [Example 64, 9-Chloro-2,3,8-trifluoro-10,11,12,13-tetrahydro-19H-5,18-methanodibenzo[c,f]pyrido[3,2-i][1,5,9]triazacyclotridecine-15,19(14H)-dione hydrochloride] | 8.2
3 | Cl.[2H]C1([2H])N2C(=O)c3cc(F)c(F)cc3N1c1ccc(F)c(Cl)c1CNCCc1[nH]c(=O)ccc12 [Example 65, 9-Chloro-2,3,8-trifluoro-10,11,12,13-tetrahydro-19H-5,18-methanodibenzo[c,f]pyrido[3,2-j][1,5,9]triazacyclotridecine-15,19(14H)-dione-20,20-d2 hydrochloride] | 8.3
4 | Cl.O=C1c2cc(F)c(C(F)(F)F)cc2N2CN1c1ccc(=O)[nH]c1CCNCc1cc(Cl)ccc12 [Example 66, 8-Chloro-2-fluoro-3-(trifluoromethyl)-10,11,12,13-tetrahydro-19H-5,18-methanodibenzo[c,f]pyrido[3,2-j][1,5,9]triazacyclotridecine-15,19(14H)-dione hydrochloride] | 8.2
5 | N#Cc1cc2c(cc1F)C(=O)N1CN2c2ccc(F)c(Cl)c2CNCCc2[nH]c(=O)ccc21 [Example 67, 9-chloro-2,8-difluoro-15,19-dioxo-10,11,12,13,14,15-hexahydro-19H-5,18-methanodibenzo[c,f]pyrido[3,2-j][1,5,9]triazacyclotridecine-3-carbonitrile] | 8.3
6 | Cc1c(F)ccc2c1CNCCc1[nH]c(=O)ccc1N1CN2c2cc(F)c(F)cc2C1=O.Cl [Example 68, 2,3,8-Trifluoro-9-methyl-10,11,12,13-tetrahydro-19H-5,18-methanodibenzo[c,f]pyrido[3,2-j][1,5,9]triazacyclotridecine-15,19(14H)-dione hydrochloride] | 7.7
7 | Cl.O=C1c2cc(Cl)c(F)cc2N2CN1c1ccc(=O)[nH]c1CCNCc1c2ccc(F)c1F [Example 69, 2-Chloro-3,8,9-trifluoro-10,11,12,13-tetrahydro-19H-5,18-methanodibenzo[c,f]pyrido[3,2-j][1,5,9]triazacyclotridecine-15,19(14H)-dione hydrochloride] | 7.6
8 | COc1c(F)ccc2c1CNCCc1[nH]c(=O)ccc1N1CN2c2cc(F)c(F)cc2C1=O.O=CO [Example 70, 2,3,8-Trifluoro-9-methoxy-10,11,12,13-tetrahydro-19H-5,18-methanodibenzo-[c,f]pyrido[3,2-j][1,5,9]triazacyclotridecine-15,19(14H)-dione, Formic acid salt] | 6.1
9 | Cc1c(F)ccc2c1CNCCc1[nH]c(=O)ccc1N1CN2c2cc(C#N)c(F)cc2C1=O.Cl [Example 71, 2,8-Difluoro-9-methyl-15,19-dioxo-10,11,12,13,14,15-hexahydro-19H-518-methanodibenzo-[c,f]pyrido[3,2-j][1,5,9]triazacyclotridecine-3-carbonitrile hydrochloride] | 7.6

The next lines start with the values.

Row | Nav1.8, pIC50 | Structure (SMILES)
10 | 7.5 | Cl.N#Cc1cc2c(cc1Cl)C(=O)N1CN2c2ccc(F)c(F)c2CNCCc2[nH]c(=O)ccc21 [Example 72, 2-Chloro-8,9-difluoro-15,19-dioxo-10,11,12,13,14,15-hexahydro-19H-5,18-methanodibenzo-[c,f]pyrido[3,2-j][1,5,9]triazacyclotridecine-3-carbonitrile hydrochloride]
11 | 6.1 | COc1c(F)ccc2c1CNCCc1[nH]c(=O)ccc1N1CN2c2cc(C#N)c(F)cc2C1=O.Cl [Example 73, 2,8-Difluoro-9-methoxy-15,19-dioxo-10,11,12,13,14,15-hexahydro-19H-5,18-methanodibenzo-[c,f]pyrido[3,2-j][1,5,9]triazacyclotridecine-3-carbonitrile hydrochloride]
12 | 7.3 | Cl.O=C1c2cc(F)c(F)cc2N2CN1c1ccc(=O)[nH]c1CCNCc1c2ccc(Cl)c1F [Example 74, 8-Chloro-2,3,9-trifluoro-10,11,12,13-tetrahydro-19H-5,18-methanodibenzo-[c,f]pyrido[3,2-j][1,5,9]triazacyclotridecine-15,19(14H)-dione hydrochloride]
13 | 5.4 | Cl.O=C1c2cc(F)c(F)cc2N2CN1c1ccc(=O)[nH]c1CCNCc1c(OC(F)F)cccc12 [Example 75, 9-(Difluoromethoxy)-2,3-difluoro-10,11,12,13-tetrahydro-19H-5,18-methanodibenzo[c,f]pyrido[3,2-j][1,5,9]triazacyclotridecine-15,19(14H)-dione hydrochloride]
14 | 7.2 | Cl.O=C1c2cc(F)c(F)cc2N2CN1c1ccc(=O)[nH]c1CCNCc1cc(Cl)ccc12 [Example 76, 8-Chloro-2,3-difluoro-10,11,12,13-tetrahydro-19H-5,18-methanodibenzo[c,f]pyrido[3,2-j][1,5,9]triazacyclotridecine-15,19(14H)-dione hydrochloride]
15 | 8.7 | Cl.O=C1c2cc(F)c(F)cc2N2CN1c1ccc(=O)[nH]c1CCNCc1c2ccc(Cl)c1Cl [Example 77, 8,9-Dichloro-2,3-difluoro-10,11,12,13-tetrahydro-19H-5,18-methanodibenzo[c,f]pyrido[3,2-j][1,5,9]triazacyclotridecine-15,19(14H)-dione hydrochloride]
16 | 6.7 | Cl.O=C1c2cc(C(F)(F)F)ccc2N2CN1c1ccc(=O)[nH]c1CCNCc1ccccc12 [Example 78, 2-(Trifluoromethyl)-10,11,12,13-tetrahydro-19H-5,18-methanodibenzo[c,f]pyrido[3,2-j][1,5,9]triazacyclotridecine-15,19(14H)-dione hydrochloride]
17 | 7.1 | Cl.O=C1c2cc(F)c(F)cc2N2CN1c1ccc(=O)[nH]c1CCNCc1c(C(F)F)cccc12 [Example 79, 9-(Difluoromethyl)-2,3-difluoro-10,11,12,13-tetrahydro-19H-5,18-methanodibenzo[c,f]pyrido[3,2-j][1,5,9]triazacyclotridecine-15,19(14H)-dione hydrochloride]
18 | 7.7 | Cl.O=C1c2cc(F)c(C(F)(F)F)cc2N2CN1c1ccc(=O)[nH]c1CCNCc1c(F)cccc12 [Example 80, 2,9-Difluoro-3-(trifluoromethyl)-10,11,12,13-tetrahydro-19H-5,18-methanodibenzo-[c,f]pyrido[3,2-j][1,5,9]triazacyclotridecine-15,19(14H)-dione hydrochloride]
19 | 8.5 | Cl.O=C1c2cc(F)c(C(F)(F)F)cc2N2CN1c1ccc(=O)[nH]c1CCNCc1c(Cl)cccc12 [Example 81, 9-Chloro-2-fluoro-3-(trifluoromethyl)-10,11,12,13-tetrahydro-19H-5,18-methanodibenzo-[c,f]pyrido[3,2-j][1,5,9]triazacyclotridecine-15,19(14H)-dione hydrochloride]
